Test results from ChEMBL document CHEMBL1201862, “PubChem BioAssay data set” (2004).
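The compound was tested at five concentrations on cells cultured in 96-well plates, with a 48-hour exposure period. The concentration for 50% growth inhibition is given as GI50.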 Active and inactive are the calls of the source. Rule as the data show it: active = GI50 up to about 1.1 µM and inactive = higher.

Columns and labels:
Test in all cases: NCI-60 cell line screen, 48 h
SK-MEL-28 = system: SK-MEL-28
UO-31 = system: UO-31
SN12C = system: SN12C
IGROV-1 = system: IGROV-1
EKVX = system: EKVX
OVCAR-5 = system: OVCAR-5
HCT-116 = system: HCT-116
NCI/ADR-RES = system: NCI/ADR-RES
SF-539 = system: SF-539
HL-60 = system: HL-60
Hs-578T = system: Hs-578T
NCI-H522 = system: NCI-H522
NCI-H226 = system: NCI-H226
DU-145 = system: DU-145
M14 = system: M14
U-251 = system: U-251
MDA-MB-231 = system: MDA-MB-231
MDA-MB-435 = system: MDA-MB-435
MOLT-4 = system: MOLT-4

SMILES | GI50 (SK-MEL-28) | GI50 (UO-31) | GI50 (SN12C) | GI50 (IGROV-1) | GI50 (EKVX) | GI50 (OVCAR-5) | GI50 (HCT-116) | GI50 (NCI/ADR-RES) | GI50 (SF-539) | GI50 (HL-60) | GI50 (Hs-578T) | GI50 (NCI-H522) | GI50 (NCI-H226) | GI50 (DU-145) | GI50 (M14) | GI50 (U-251) | GI50 (MDA-MB-231) | GI50 (MDA-MB-435) | GI50 (MOLT-4)
Br[Se]c1ccccn1 | 19.6 µM (inactive) | 17.1 µM (inactive) | 18.7 µM (inactive) | 17.5 µM (inactive) | 17.6 µM (inactive) | 20.2 µM (inactive) | 18.3 µM (inactive) | 26.1 µM (inactive) | 15.8 µM (inactive) | 17.6 µM (inactive) | 18.7 µM (inactive) | 16.4 µM (inactive) | 17.5 µM (inactive) | 16.7 µM (inactive) | 17.6 µM (inactive) | 15.6 µM (inactive) | 17.7 µM (inactive) | 17.3 µM (inactive) | 
CC(C)(C)OC(=O)NC(Cc1ccc(OCc2ccccc2)cn1)C(=O)NCc1ccccc1 (stereo unspecified) | 31.3 µM (inactive) | 34.7 µM (inactive) | 28.1 µM (inactive) | 32.3 µM (inactive) | 26.2 µM (inactive) | 38.6 µM (inactive) | 26.5 µM (inactive) | 16.7 µM (inactive) |  | 15.1 µM (inactive) | 29 µM (inactive) | 17.1 µM (inactive) |  | 40.5 µM (inactive) | 25.8 µM (inactive) | 26.1 µM (inactive) | 24.6 µM (inactive) | 20.1 µM (inactive) | 13.2 µM (inactive)
CCN(CC)CCCNc1nncc2c(C)c3[nH]c4ccccc4c3cc12 | 1.24 µM (inactive) | 5.79 µM (inactive) | 0.292 µM (active) | 0.617 µM (active) | 1.37 µM (inactive) | 1.71 µM (inactive) |  | 89.5 µM (inactive) | 1.12 µM (inactive) | 0.267 µM (active) | 0.865 µM (active) | 0.16 µM (active) | 0.255 µM (active) | 0.706 µM (active) | 1.89 µM (inactive) | 0.605 µM (active) | 0.374 µM (active) | 1.25 µM (inactive) | 0.0241 µM (active)
CC1=CC(=O)N(n2c(C)n[nH]c2=O)C1=O |  | > 100 µM (inactive) | > 100 µM (inactive) | > 100 µM (inactive) | > 100 µM (inactive) | > 100 µM (inactive) | > 100 µM (inactive) | > 100 µM (inactive) | > 100 µM (inactive) |  | > 100 µM (inactive) | > 100 µM (inactive) | > 100 µM (inactive) | > 100 µM (inactive) | > 100 µM (inactive) | > 100 µM (inactive) | > 100 µM (inactive) | > 100 µM (inactive) | > 100 µM (inactive)
CC[C@]1(Cc2ccc(OC)c(OC)c2)C=[N+]([O-])O[C@H](OCc2ccccc2)[C@@H]1OC(C)=O | 25.8 µM (inactive) | 32.1 µM (inactive) |  | 25.1 µM (inactive) | 16.5 µM (inactive) | 59.7 µM (inactive) |  | 33.3 µM (inactive) |  | 16.6 µM (inactive) | 20.4 µM (inactive) | 12.4 µM (inactive) | 19.3 µM (inactive) | 23.6 µM (inactive) | 33.5 µM (inactive) | 32.3 µM (inactive) | 36.4 µM (inactive) | 38.4 µM (inactive) | 6.34 µM (inactive)
O[C@@H]1CCC[C@@H]2NC[C@@H](c3ccc4c(c3)OCO4)[C@H]12 | > 100 µM (inactive) | > 100 µM (inactive) |  | > 100 µM (inactive) | > 100 µM (inactive) | > 100 µM (inactive) |  | > 100 µM (inactive) | > 100 µM (inactive) | 96.4 µM (inactive) | 99.1 µM (inactive) | > 100 µM (inactive) | > 100 µM (inactive) | > 100 µM (inactive) | > 100 µM (inactive) | > 100 µM (inactive) | > 100 µM (inactive) | > 100 µM (inactive) | > 100 µM (inactive)
O=C(N/N=C(COc1ccccc1Cl)\N=C\c1cccnc1)c1ccncc1 | > 100 µM (inactive) |  | > 100 µM (inactive) | > 100 µM (inactive) | > 100 µM (inactive) | > 100 µM (inactive) | > 100 µM (inactive) | > 100 µM (inactive) | > 100 µM (inactive) | > 100 µM (inactive) | 66.2 µM (inactive) | > 100 µM (inactive) | > 100 µM (inactive) | > 100 µM (inactive) | > 100 µM (inactive) | > 100 µM (inactive) | > 100 µM (inactive) | > 100 µM (inactive) | > 100 µM (inactive)
O=C(Cn1cc(F)c(=O)[nH]c1=O)C12CC3CC(CC(C3)C1)C2 | > 100 µM (inactive) | > 100 µM (inactive) | > 100 µM (inactive) | > 100 µM (inactive) | > 100 µM (inactive) | > 100 µM (inactive) | > 100 µM (inactive) | > 100 µM (inactive) | > 100 µM (inactive) | > 100 µM (inactive) | > 100 µM (inactive) | > 100 µM (inactive) |  | > 100 µM (inactive) | > 100 µM (inactive) | > 100 µM (inactive) | > 100 µM (inactive) | > 100 µM (inactive) | > 100 µM (inactive)
CN(C)C(=O)O/N=C1/C(=C2/C(=O)Nc3ccccc32)Nc2ccccc21 | 36.5 µM (inactive) | 21.6 µM (inactive) | 22.8 µM (inactive) | 0.711 µM (active) | 4.83 µM (inactive) | 31 µM (inactive) | 19.1 µM (inactive) | 21.9 µM (inactive) | 9.77 µM (inactive) | > 100 µM (inactive) | 9.35 µM (inactive) | 8.75 µM (inactive) |  | 8.83 µM (inactive) | 50.1 µM (inactive) | 11.7 µM (inactive) | 11.6 µM (inactive) | 50.7 µM (inactive) | 10.4 µM (inactive)
O=Cc1c2ccccc2n2ccc3c4ccccc4[nH]c3c12 |  | > 10 µM (inactive) | > 10 µM (inactive) | > 10 µM (inactive) | 3.57 µM (inactive) | > 10 µM (inactive) | > 10 µM (inactive) | > 10 µM (inactive) | > 10 µM (inactive) | > 10 µM (inactive) | > 10 µM (inactive) | > 10 µM (inactive) | > 10 µM (inactive) | > 10 µM (inactive) | > 10 µM (inactive) | > 10 µM (inactive) | > 10 µM (inactive) | > 10 µM (inactive) | > 10 µM (inactive)
COC(=N)c1ncn(Cc2ccccc2)c1N | > 100 µM (inactive) |  | > 100 µM (inactive) | > 100 µM (inactive) | > 100 µM (inactive) | > 100 µM (inactive) | > 100 µM (inactive) | > 100 µM (inactive) | > 100 µM (inactive) |  | > 100 µM (inactive) | > 100 µM (inactive) | > 100 µM (inactive) | > 100 µM (inactive) | > 100 µM (inactive) | > 100 µM (inactive) | > 100 µM (inactive) | > 100 µM (inactive) | 
O=C(O)CCC1(c2ccccc2)NC(=O)NC1=O (stereo unspecified) | > 100 µM (inactive) |  | > 100 µM (inactive) | > 100 µM (inactive) | > 100 µM (inactive) | > 100 µM (inactive) | > 100 µM (inactive) | > 100 µM (inactive) | > 100 µM (inactive) | > 100 µM (inactive) | > 100 µM (inactive) | > 100 µM (inactive) | > 100 µM (inactive) | > 100 µM (inactive) |  | > 100 µM (inactive) | > 100 µM (inactive) | > 100 µM (inactive) | 
COC(=O)[C@@H](N1C(=O)c2ccccc2C1=O)C1(C)CC(Cl)=NO1 (stereo partly specified) | > 100 µM (inactive) | > 100 µM (inactive) | 33 µM (inactive) | 17.7 µM (inactive) | 38.8 µM (inactive) | > 100 µM (inactive) | 75.5 µM (inactive) | 26.8 µM (inactive) |  |  | 29.8 µM (inactive) | 35 µM (inactive) | 38.8 µM (inactive) | 44 µM (inactive) | > 100 µM (inactive) | 26.2 µM (inactive) | 19.1 µM (inactive) | > 100 µM (inactive) | 
CSCCCCCCCCCCOc1ccc(C=C2C(=C(C#N)C#N)c3ccccc3C2=C(C#N)C#N)cc1 | 16.1 µM (inactive) | 16.3 µM (inactive) |  | 17.3 µM (inactive) | 18.1 µM (inactive) | 16.6 µM (inactive) | 16.9 µM (inactive) | 29 µM (inactive) | 18 µM (inactive) | 0.0962 µM (active) | 20.5 µM (inactive) | 19.5 µM (inactive) | 30.4 µM (inactive) | 15.6 µM (inactive) | 17.9 µM (inactive) | 17.5 µM (inactive) | 19.4 µM (inactive) | 16.7 µM (inactive) | 19.2 µM (inactive)
c1ccc2c(CN3CCN(Cc4c[nH]c5ccccc45)CC3)c[nH]c2c1 | 17.9 µM (inactive) | 14.6 µM (inactive) | 17.7 µM (inactive) | 11.9 µM (inactive) | 13.3 µM (inactive) | 18.7 µM (inactive) | 14.8 µM (inactive) | 23 µM (inactive) |  | 17.5 µM (inactive) | 15.9 µM (inactive) | 16.5 µM (inactive) | 16.5 µM (inactive) | 18.3 µM (inactive) | 15.7 µM (inactive) | 15.9 µM (inactive) | 14.9 µM (inactive) | 16.2 µM (inactive) | 
COc1ccc(-c2nc3ccccc3c(=S)n2OC(C)=O)cc1 | 6.5 µM (inactive) | 1.91 µM (inactive) | 8.07 µM (inactive) | 0.143 µM (active) | 6.46 µM (inactive) | > 25 µM (inactive) | 1.91 µM (inactive) | 2.54 µM (inactive) | 4.89 µM (inactive) | 1.04 µM (active) | 12.2 µM (inactive) |  | 7.85 µM (inactive) | 5.11 µM (inactive) | 4.98 µM (inactive) | 2.56 µM (inactive) | > 25 µM (inactive) | 7.1 µM (inactive) | 1.15 µM (inactive)
